Laboratory results: patent publication US20030157516A1, “G protein coupled receptor” (priority 2000, published 2003)

Assays:
[1] = target: T1, adenine binding rat receptor (Rattus norvegicus, UniProt Q7TN49); test: cAMP measurements on CHO cells transiently transfected (forskolin stimulated); format: cell-based; settings: inhibition of forskolin stimulated cAMP
T1 construct: expressed in transfected cells; host or cells: CHO cells, transient, lipofectamine PLUS
T1 sequence (Q7TN49 1-304): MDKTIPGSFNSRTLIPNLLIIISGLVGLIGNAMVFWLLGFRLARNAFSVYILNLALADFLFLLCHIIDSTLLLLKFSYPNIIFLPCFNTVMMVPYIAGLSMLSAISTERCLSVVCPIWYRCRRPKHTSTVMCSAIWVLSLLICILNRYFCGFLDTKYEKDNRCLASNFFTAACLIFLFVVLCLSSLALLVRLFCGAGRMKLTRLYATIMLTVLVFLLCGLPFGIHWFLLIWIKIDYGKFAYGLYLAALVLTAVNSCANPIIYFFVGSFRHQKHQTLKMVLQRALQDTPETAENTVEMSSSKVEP
Description: a) Methods—For transiently transfected CHO cells, cAMP measurements were performed using the direct RIA kit from NEN (Belgium).
The cells were collected from 50 mm petri dishes by adding 1 ml 0.04% EDTA and re-suspending them in PBS (without Ca^2+ and Mg^2+). The cells were then centrifuged for 5 minutes at 1,500 RPM, the supernatant was removed and the pellet was re-suspended in stimulation buffer (provided by the supplier, NEN). The cells were counted and 50 μl was added to each well of a 96-well flashplate at a density of 10^6 cells/well. A standard curve of cAMP was prepared in stimulation buffer, covering a range from 10 to 1,000 nM, and 50 μl was added to the flashplate.
The compounds were diluted in PBS with forskolin (at 50 μM), and 50 μl of the ligand, 2 times the final concentration, was added to the cells and incubated for 20 minutes at 37° C. After the 20 minutes incubation, 100 μl of the [^125I]cAMP tracer (2 μCi) was added to each well, resulting in a final volume of 200 μl/well. The plate was left at room temperature, until being counted in the Topcount™ microplate scintillation counter (Packard, Netherlands). The sigmoid concentration response curves (duplicate points) were analyzed using the GraphPad Prism program (GraphPad Software, Calif., USA).
a) Methods: Two days before the experiment the cells were seeded out in a 96 well plate at a density required for approximately 90% confluence at the day of the experiment. After removal of the growth medium, the cells were washed twice with a controlled salt solution (CSS) containing 25 mM Tris-HCl, pH 7.4, 120 mM NaCl, 5.4 mM KCl, 0.8 mM MgCl2, 1.8 mM CaCl2, 15 mM glucose and 15 mg/l phenol red, with an addition of a phosphodiesterase inhibitor IBMX (3-isobutyl-1-methylxanthine) in a concentration of 1 mM and […]. Basal cAMP levels were determined in CSS containing these additives and maximally stimulated cAMP levels were determined in the presence of 50 μM forskolin. For testing agonistic activity, the compounds were incubated with the cells for 20 minutes at 37° C. The reaction was stopped by addition of ice cold HClO4 (1N) and stored at −20° C. After thawing the mixtures were neutralized with an equivalent amount of phosphate buffered KOH, left at 4° C. during 30 minutes to allow the salts to precipitate and centrifuged at 2,000 RPM for 5 minutes at 4° C.
For the quantitative determination of the cAMP levels, a 96-well Flashplate radioimmunoassay kit from NEN was used, according to the protocol of the supplier. The sigmoid concentration response curves (duplicate points) were analyzed using the GraphPad Prism program.

[2] = target: T1, adenine binding rat receptor; test: [35S]GTPγS binding on CHO membranes permanently transfected; format: biochemical; settings: for % stimulation: above basal
Description: The lipofectamine PLUS method was also used for permanent transfection of CHO cells with slight modifications. One day after the transfection, the medium was replaced with selection medium which was replaced every 2 to 3 days. The cells were grown till colonies appeared (between day 8 and 10) and split to a 175 cm^2 culture flask for further culture and experiments. Monoclonal cell lines were prepared by limited dilution seeding in 96 well plates.
a) Methods—Determination of [^35S ]GTPγS binding to the G-proteins was carried out according to a modified procedure of Lazareno (Methods Mol. Biol., 83:107-116, 1997). These experiments were performed for a first functional evaluation of the receptor on the level of a membrane preparation.
The assay mixture contained 10 and 35 μg of membrane protein for the transfected and wild type CHO cells, respectively.
For testing agonistic activity, 175 μl of diluted membranes was pre-incubated in the buffer described above together with 25 μl of buffer and 25 μl of varying concentrations of the compound in a total volume of 225 μl. After a 20 minute pre-incubation period at 30° C., 25 μl of [^35S]GTPγS was added to a final concentration of 0.25 nM and the assay mixtures were further incubated for 20 minutes at 30° C. Bound and free [^35S]GTPγS were separated by rapid filtration over an UniFilter™-96, GF/B™ under reduced pressure using Filtermate 196 filtration (Packard Company (Netherlands). The amount of bound radioactivity on the filter unit was determined after drying of the filters and scintillant addition (Microscint-O; Packard Company) by liquid scintillation counting.
Basal [^35S]GTPγS binding was measured in absence of compounds. Stimulation by agonist was calculated as the percentage increase above basal levels. The sigmoid agonist concentration-response curves were analyzed by non-linear regression using the GraphPad Prism program. The different concentration points were run in duplicates and the reported data were retrieved from independent experiments.
The first functional characterization of the monoclonal cell lines was performed in [^35S]GTPγS binding experiments. The maximum stimulation of [^35S] GTPγS binding by adenine for each of the 4 selected clones was much higher ([…]) than the that found in the transient transfections confirming the expected better coupling in permanent cell lines (see table 5).

[3] = direct assay, 0.5% hiFCS, read-out: pEC50 (converted)
[4] = direct assay, 2% hiFCS, read-out: pEC50 (converted)
[5] = indirect assay, 0.5% hiFCS, read-out: pEC50 (converted)

EC50 [1, 3] [nM] | EC50 [1, 4] [nM] | EC50 [1, 5] [nM] | EC50 ([1]; indirect assay, 2% hiFCS, read-out: pEC50 (converted)) [nM] | EC50 ([1]; transiently transfected cells, read-out: EC50) [nM] | EC50 ([2]; 4 selected clones, read-out: mean EC50) [nM] | EC50 ([2]; Clone 26 (MP1), read-out: pEC50 (converted)) [nM] | EC50 ([2]; Clone 28 (MP9), read-out: pEC50 (converted)) [nM] | EC50 ([2]; Clone 29 (MP9), read-out: pEC50 (converted)) [nM] | EC50 ([2]; Clone 30 (MP9), read-out: pEC50 (converted)) [nM] | % stimulation ([2]; Clone 26 (MP1)) [%] | % stimulation ([2]; Clone 28 (MP9)) [%] | % stimulation ([2]; Clone 29 (MP9)) [%] | % stimulation ([2]; Clone 30 (MP9)) [%] | pEC50 ([1]; indirect assay, 2% hiFCS) | SMILES
20.9 | 7.08 | 3.31 | 110 | ~15 | 62 | 64.6 | 49 | 79.4 | 57.5 | 632 | 657 | 527 | 534 |  | Nc1ncnc2nc[nH]c12 [Adenine, adenine]
4900 | 6310 | 7940 |  |  |  |  |  |  |  |  |  |  |  | no fit | Cn1cnc2ncnc-2c1N [1-Methyladenine]
